Data on four compounds can be found in US4196202A, “Carcinostatic composition containing 3-N-o-toluyl-5-fluorouracil producing the same” (priority 1977, dated 1980).

The structures appear in SMILES notation. Values after ≈ are worked out from the molar mass of the structure shown. Where two headings read alike, the source gives them in different places.

For data set [1], the system named is Sarcoma 180. The experiment in a line: Carcinostatic effect against Sarcoma 180 of a mouse, and toxicity (Example 5). The following applies: for toxicity: general debility, decrease in weight and napping; for ratio of tumor in wt.: seven days, Control 1.00. The data set is classed as in vivo. As to the method:
Mice were separated into 7 groups of 10 mice. Sarcoma 180, having an initial cell number of 5×10^5, was innoculated hypodermically into each subject. After 24 hours, each composition was given to the subject mouse, except the Control, at the dose as shown in Table 3 for seven (7) consecutive days. On the tenth day from the initial innoculation, each subject was anatomized to examine the tumor weight, the average of which was then compared with that of the Control. Toxicity was also interpreted in view of general debility, decrease in weight and napping. In this test, 3-N-o-toluyl-5-FU was administered orally in the form of powder mixed with water, which was isolated by chromatography from that in oil emulsion.

Data set [2] has as its system AH 130 (tumor cells of liver cancer of a rat). The experiment in a line: Carcinostatic effect against AH 130 (tumor cells of liver cancer of a rat), and toxicity (Example 5). The following applies: for ratio of tumor in wt.: seven days, Control 1.00. The data set is classed as in vivo. The procedure: To further show the advantageous effects of 3-N-o-toluyl-5-FU of the present invention over related compounds known in the art, such as FT-207 and 5-FU, tests were conducted in accordance with the procedures as described below and the results are presented in Tables 3 and 4.
Rats were separated into 7 groups of 10 rats. AH 130, having an initial cell number of 5×10^5, was injected hypodermically into each subject and, after 24 hours, each composition was given to each subject rat at the dose shown in Table 4 for seven (7) consecutive days. On the 10th day from the initial innoculation, each subject was anatomized to examine the tumor weight, the average of which was compared with that of the non-treated Control. In this test, 3-N-o-toluyl-5-FU was also administered orally in the form of powder as in the former test.

Data set [3] relates to Ehrich cancerous cells. The experiment in a line: growth inhibition of Ehrich cancerous cells in culture (Example 6). The data set is classed as cell-based, mouse. The following applies: for MIC / IC50: Mus musculus, 72 h; for IC50: Ehrlich, dose per unit volume effective for 50% of the cells, read-out: ED50 (the source's name). As to the method:
Cancerous cells employed:
(1) Ehrich cancerous cells of mouse;
Each kind of said cancerous cells, having an initial number of 3×10^4 and 4×10^4 was cultured in a nutrient medium on a slide glass in a flat bottle for 24 hours to make more than one sample, respectively; half for 5-FU and the other for 3-N-o-toluyl-5-FU in oil emulsion. Then 5-FU diluted with water of different concentrations and 3-N-o-toluyl-5-FU in oil emulsion of different concentrations was respectively added to the cells of each of said plate to make several different concentrations of said compounds per unit volume of each cell, and the culture was continued for three days. […] As a nutrient medium, MEM S10 or HAM-F S10 was employed.

Data set [4] has as its system human thyroid cancer cells. As to the kind of experiment: growth inhibition of human thyroid cancerous cells in culture (Example 7). The data set is classed as cell-based. To be noted: for IC50 / MIC: Homo sapiens, 72 h; for IC50: dose per unit volume effective for 50% of the cells, read-out: ED50 (the source's name). From the text: (§1) Included in Tables 5 through 7 for comparison are carcinostatic effect of 3-N-o-toluyl-5-FU on various kinds of cancerous cells. In these tables, MIC represents minimum inhibitory concentration (γ or microgram/ml) required to inhibit the growth of cancerous cells in a culture medium and ED50 (γ or microgram/ml) represents the dose per unit volume effective for 50% of the cells.
(2) Human thyroid cancerous cells; and
(§2) Each kind of said cancerous cells, having an initial number of 3×10^4 and 4×10^4 was cultured in a nutrient medium on a slide glass in a flat bottle for 24 hours to make more than one sample, respectively; half for 5-FU and the other for 3-N-o-toluyl-5-FU in oil emulsion. Then 5-FU diluted with water of different concentrations and 3-N-o-toluyl-5-FU in oil emulsion of different concentrations was respectively added to the cells of each of said plate to make several different concentrations of said compounds per unit volume of each cell, and the culture was continued for three days. The manner of the action of each of said compounds against each of the cells at different concentrations (weight per unit volume of cell) was observed by an inverted phase contrast microscope with the passage of time, as well as the multiplication and the change in morphology of the cells were examined by fixing and staining the cells on the slide glass after a period of three days. As a nutrient medium, MEM S10 or HAM-F S10 was employed. HAM-F S10 is a 10% serum supplemented medium described by Richard G. Ham in 1964, and is sold under the tradename "HAM F12 Nissui" in Japan.
(§3) The molecular weight of 5-FU is about 130 and that of 3-N-o-toluyl-5-FU is about 248. […] Accordingly, as used in the following explanations, the terms "weight concentration" refers to the γgm/ml of each compound used in a given test, and the term "molarity" generally refers to the number of molecules of each compound present in a given amount used in a test.

The subject of data set [5] is Leiomyosarcoma cells. As to the kind of experiment: growth inhibition of leiomyosarcoma cells in culture (Example 8). The data set is classed as cell-based, human. To be noted: for IC50 / MIC: Homo sapiens, 72 h; for IC50: dose per unit volume effective for 50% of the cells, read-out: ED50 (the source's name).
Description: as §1
(3) Leiomyosarcoma cells of human.
as §2, §3

Data set [6] in a line: side-effects on normal cells, mouse foot pad cells (Example 9). The data set is classed as cell-based. The following applies: mouse, foot pad cells; for cytotoxicity: MIC for Ehlrich cancerous cells versus ED50 for normal cells, read-out: normal cells damaged at the minimum dose inhibiting multiplication of the cancerous cells; for CC50 at 72 h: Table 8, normal cells, procedures of Examples 6-8, read-out: ED50. The procedure:
as §2
(§4) Using the same procedures as in Examples 6-8, it was investigated whether the compound of the invention causes side-effects on normal cells.
(§5) ED50 for normal cells mean that this dose will inhibit the normal propagation of 50% of unattacked cells (that is, it may cause a harmful influence upon normal cells), while MIC for cancerous cells means that this dose will inhibit the multiplication of 100% of cancerous cells. Consequently when MIC of a compound for cancerous cells exceeds ED50 of the same for normal cells, it is considered that this compound must have side-effects.

In data set [7] the test system is mouse foot pad cells. The description is as above. The data set is classed as cell-based. The following applies: for MIC: Mus musculus, 72 h, Table 8, normal cells, procedures of Examples 6-8. As to the method: as §2, §4, §5
Data set [8] has as its system cancerous and tumorous cells. The experiment in a line: tests of carcinostatic effect (several tests including a biological test). The following applies: high dose sometimes leads to less effect than a low dose. From the text:
The present invention relates to carcinostatic compounds and compositions and a process for producing the same chiefly containing 5-fluorouracil derivatives (hereinafter referred to as 5-FU). 5-FU and its various derivatives are known to act as carcinostatic agents which disrupt cancerous cells or depress the multiplication thereof. […] That is to say, in spite of the fact that a remarkable carcinostatic effect was achnowledged using a low dose, a high dose sometimes leads to less carcinostatic effects than a low dose. […] In general, it can be easily presumed that these acylated 5-FU compounds, having the substituent group of NH, are to be obtained in acylation with the reagents represented by the general formula such as RCOX, wherein R represents an acyl group and X is halogen and (RCO)2 O, wherein R is an acyl group. However, 3-N-acyl-5-FU cannot be obtained directly from 5-FU because the acylation will preferably occur at the 1-position of 5-FU when 5-FU is reacted with the reagents under normal conditions. […]
In addition, the composition has many other advantageous features, e.g., only a low dose is necessary to be effective so that harmful side-effects are avoided as regards the normal cells. […] Furthermore, it is believed that the 5-FU ring is readily incorporated into RNA as a substituent for uracil. […]

The mark [9] stands for this setting: 100 mg/kg daily, total 700 mg/kg.
Setting [10] is: 200 mg/kg daily, total 1400 mg/kg.
Where [11] appears, read: 90 mg/kg daily, total 630 mg/kg.
The mark [12] stands for this setting: Tables 3 and 4 (Sarcoma 180 mice and AH 130 rats).
The mark [13] stands for this setting: 30 mg/kg daily, total 210 mg/kg.
Where [14] appears, read: Example 9, read-out: MIC for Ehrich cancerous cells.
[15] abbreviates: Table 5, minimum inhibitory concentration, three days, read-out: MIC.
The mark [16] stands for this setting: Table 6, minimum inhibitory concentration, three days, read-out: MIC.
The mark [17] stands for this setting: Table 7, minimum inhibitory concentration, three days, read-out: MIC.

Regarding `O=c1[nH]c(=O)n(C2CCCO2)cc1F` (centres unmarked) [FT-207], the toxicity entry in data set [1] (setting [9]) is given as “-”; in data set [1] (setting [10]), “+”; in data set [2] (setting [11]), “-”; in data set [2] (setting [10]), “+”. Moreover, the “ratio of tumor in wt.” value in data set [1] (setting [9]) is reported as 0.516; in data set [1] (setting [10]), 0.418; in data set [2] (setting [11]) it was 0.60; in data set [2] (setting [10]), 0.35. In addition, in data set [1] (mouse, in vivo), the “toxic side-effects with increasing amount administered” value is “increasing the amount of the compound administered produces toxic results”.
`Cc1ccccc1C(=O)n1c(=O)[nH]cc(F)c1=O` [3-N-o-toluyl-5-FU, 3-N-o-toluyl-5-fluorouracil]: the toxicity entry is reported as “-” in data set [1] (50 mg/kg daily, total 350 mg/kg); “-” in data set [1] (setting [9]); “-” in data set [2] (setting [13]); “-” in data set [2] (setting [9]). Besides, the “ratio of tumor in wt.” value was found to be 0.550 in data set [1] (50 mg/kg daily, total 350 mg/kg, oral powder mixed with water); 0.367 in data set [1] (setting [9]); 0.84 in data set [2] (setting [13]); 0.35 in data set [2] (100 mg/kg daily, total 700 mg/kg, oral powder). In data set [1] (setting [12]), the “toxic side-effects with increasing amount administered” value is listed as “does not produce toxic side-effects”. The MIC amounted to 2 µg/mL (≈ 8.06 µM) in data set [3] (setting [14]); 2 µg/mL (≈ 8.06 µM) in data set [3] (setting [15]); 1.25 µg/mL (≈ 5.04 µM) in data set [4] (setting [16]); 1.25 µg/mL (≈ 5.04 µM) in data set [5] (setting [17]); 10 µg/mL (≈ 40.3 µM) in data set [7]. Moreover, the IC50 in data set [3] (Table 5, three days) amounted to 1 µg/mL (≈ 4.03 µM); in data set [4] (Table 6, three days) it was 0.6 µg/mL (≈ 2.42 µM); in data set [5] (Table 7, three days), 0.3 µg/mL (≈ 1.21 µM). The “number of molecules for ED50 relative to 5-FU” value in data set [3] (number of molecules as reference standard) is reported as “half that of 5-FU”. Moreover, the “MIC compared with 5-FU” value in data set [3] (weight concentration and molarity) is “apparently superior to 5-FU in both weight concentration and molarity”. Also, in data set [4] (Table 6), the “dose in weight concentration for carcinostatic effects, compared with 5-FU” value is on record as “less than half the dose in weight concentration than that of 5-FU”. The “carcinostatic efficacy compared with 5-FU” value in data set [5] (weight concentration, Table 7) is reported as “considerably superior to 5-FU”. Also, in data set [6], the cytotoxicity was under 50%. The CC50 at 72 h in data set [6] worked out at 2.5 µg/mL (≈ 10.1 µM). The “side-effects compared with 5-FU” value in data set [7] (MIC for Ehrich cancerous cells versus ED50 for normal cells) is reported as “less side-effects than 5-FU”.
Regarding `Cc1ccccc1C(=O)n1cc(F)c(=O)n(C(=O)c2ccccc2C)c1=O` [1,3-di-N-o-toluyl-5-FU], in data set [8], the “carcinostatic effect, stability of the effect” value is “extremely unstable”.
Turning to `O=c1[nH]cc(F)c(=O)[nH]1` [5-FU, 5-fluorouracil], the toxicity result in data set [1] (10 mg/kg daily, total 70 mg/kg) was “-”; in data set [1] (setting [13]), “+”; in data set [2] (10 mg/kg daily, total 70 mg/kg) it was “-”; in data set [2] (setting [13]) it was “+”. The “ratio of tumor in wt.” value in data set [1] (10 mg/kg daily, total 70 mg/kg) stood at 0.840; in data set [1] (setting [13]), 0.540; in data set [2] (10 mg/kg daily, total 70 mg/kg), 0.72; in data set [2] (setting [13]) it was 0.55. Further, the “toxic side-effects with increasing amount administered” value in data set [1] (setting [12]) is “increasing the amount of the compound administered produces toxic results”. The MIC in data set [3] (setting [14]) amounted to 2.5 µg/mL (≈ 19.2 µM); in data set [3] (setting [15]), 2.5 µg/mL (≈ 19.2 µM); in data set [3] (Table 9 and text, read-out: MIC (Elrich cancerous cells)), 2.5 µg/mL (≈ 19.2 µM); in data set [4] (setting [16]), 2.5 µg/mL (≈ 19.2 µM); in data set [4] (Table 9, read-out: MIC (human thyroid cancerous cells)), 2.5 µg/mL (≈ 19.2 µM); in data set [5] (setting [17]), 2.5 µg/mL (≈ 19.2 µM). Moreover, the MIC was found to be 2.5 µg/mL (≈ 19.2 µM) in data set [5] (Table 9, read-out: MIC (leiomysarcoma)) and 10 µg/mL (≈ 76.9 µM) in data set [7]. Besides, the IC50 was determined as 1 µg/mL (≈ 7.69 µM) in data set [3] (Table 5, three days); 1.25 µg/mL (≈ 9.61 µM) in data set [4] (Table 6, three days); 1.25 µg/mL (≈ 9.61 µM) in data set [5] (Table 7, three days). Moreover, the cytotoxicity in data set [6] worked out at 50%. Further, the CC50 at 72 h in data set [6] was 2.5 µg/mL (≈ 19.2 µM).
